Molecules are shown by their SMILES.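 Briefly, cells in 96-well plates were exposed to five compound concentrations for 48 h, and endpoints were estimated by linear interpolation. Here, GI50 denotes the concentration required for 50% inhibition of growth. TGI: concentration producing complete growth inhibition.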 Bounds are passed on as bounds.

Some test systems named below: SNB-19 CNS; OVCAR-8 ovarian; UO-31 renal; SN12C renal; HOP-62 NSCLC; SK-MEL-28 melanoma; TK-10 renal; HCT-116 colon; KM12 colon; IGROV1 ovarian.
Holding throughout (assay): growth of human tumour cells (NCI), 48 h

Consider `C=CCn1c(=O)c(C(=O)NC(=O)OCC)cn(C2CCCCC2)c1=O`, for which the TGI in the experiment with SNB-19 CNS, with OVCAR-8 ovarian, with UO-31 renal, in the experiment with SN12C renal, in the experiment on HOP-62 NSCLC and in the experiment with SK-MEL-28 melanoma was greater than 100 µM in each case. Further, the TGI in the experiment on TK-10 renal, with HCT-116 colon, in the experiment with KM12 colon and with IGROV1 ovarian was greater than 100 µM in each case.
`C=C(C)[C@@H]1CC[C@]2(C(=O)N3CCN(C)CC3)CC[C@]3(C)[C@H](CC[C@@H]4[C@@]5(C)CC[C@H](O)C(C)(C)[C@@H]5CC[C@]43C)[C@@H]12`: the GI50 was 1830 nM in the experiment on SNB-19 CNS; 1690 nM in the experiment on OVCAR-8 ovarian; 1670 nM in the experiment with UO-31 renal; 1720 nM with SN12C renal; 1910 nM with HOP-62 NSCLC; 1800 nM in the experiment on SK-MEL-28 melanoma. For the same molecule, the GI50 in the experiment with TK-10 renal was 1790 nM; with HCT-116 colon, 1470 nM; in the experiment on KM12 colon, 2090 nM; with IGROV1 ovarian, 1930 nM. Besides, the TGI in the experiment on SNB-19 CNS was 3.92 µM; with OVCAR-8 ovarian it was 4.56 µM; with UO-31 renal, 3.24 µM; in the experiment with SN12C renal, 3.46 µM; in the experiment on HOP-62 NSCLC it was 3.75 µM; with SK-MEL-28 melanoma, 3.48 µM. For the same molecule, the TGI was determined as 3.38 µM in the experiment with TK-10 renal, 3.51 µM in the experiment with HCT-116 colon, 4.03 µM in the experiment with KM12 colon and 3.71 µM with IGROV1 ovarian.
On to `CCOC(=O)Nc1cc(-c2ccc(C)c(NS(C)(=O)=O)c2)nn2c(C)nnc12`, for which the GI50 with SNB-19 CNS is 799 nM; with OVCAR-8 ovarian, 2040 nM; with UO-31 renal, 697 nM; with SN12C renal it was 2060 nM; in the experiment on HOP-62 NSCLC, 1890 nM; in the experiment on SK-MEL-28 melanoma, 2690 nM. Further, the GI50 with TK-10 renal was 465 nM; in the experiment with HCT-116 colon it was 1900 nM; with KM12 colon, 2020 nM; in the experiment on IGROV1 ovarian it was 1570 nM. Further, the TGI is greater than 100 µM with SNB-19 CNS; greater than 100 µM in the experiment with OVCAR-8 ovarian; greater than 100 µM with UO-31 renal; 58.5 µM with SN12C renal; 20.5 µM in the experiment on HOP-62 NSCLC; greater than 100 µM with SK-MEL-28 melanoma. The TGI was determined as 7.36 µM in the experiment with TK-10 renal, 15.3 µM in the experiment with HCT-116 colon, 19.7 µM in the experiment on KM12 colon and 8.17 µM with IGROV1 ovarian.
Regarding `C=C(C)C1CCC2(C(=O)O)CCC3(C)C(CCC4C5(C)CCC(O)C(C)(C)C5CCC43C)C12` (stereo not given), the TGI with SNB-19 CNS is 39.7 µM; in the experiment on OVCAR-8 ovarian, 20.7 µM; in the experiment with UO-31 renal, 24.5 µM; in the experiment on SN12C renal it was 26.1 µM; in the experiment with HOP-62 NSCLC it was 27.6 µM; in the experiment with SK-MEL-28 melanoma it was 41.8 µM. Moreover, the TGI in the experiment with TK-10 renal was found to be 28.9 µM; in the experiment with HCT-116 colon, 17.5 µM; with KM12 colon it was 20.3 µM; in the experiment with IGROV1 ovarian, 28.7 µM.
On to `COc1cc(=O)oc(/C=C/CO)c1C`, for which the TGI with SNB-19 CNS, in the experiment with OVCAR-8 ovarian, in the experiment with UO-31 renal, in the experiment with SN12C renal, in the experiment with HOP-62 NSCLC and with SK-MEL-28 melanoma was greater than 100 µM throughout. For the same molecule, the TGI with TK-10 renal, in the experiment with HCT-116 colon, in the experiment with KM12 colon and with IGROV1 ovarian was greater than 100 µM each time.
For `CSc1nc(SC)c2c(C)cn(C3OC(C)C(O)C(O)C3O)c2n1` (stereo not given), the TGI in the experiment on SNB-19 CNS, with OVCAR-8 ovarian, in the experiment with UO-31 renal, with SN12C renal, in the experiment on HOP-62 NSCLC and in the experiment with SK-MEL-28 melanoma was greater than 100 µM in each case. The TGI in the experiment with TK-10 renal, in the experiment on HCT-116 colon, in the experiment on KM12 colon and with IGROV1 ovarian was greater than 100 µM throughout.
On to `Cc1cc(N(CCC#N)CCC#N)ccc1CC1N=C(c2ccccc2)OC1=O` (stereo not given), for which the TGI with SNB-19 CNS, with OVCAR-8 ovarian, in the experiment on UO-31 renal, in the experiment with SN12C renal, in the experiment with HOP-62 NSCLC and in the experiment with SK-MEL-28 melanoma was greater than 100 µM in each case. The TGI in the experiment on TK-10 renal, with HCT-116 colon, in the experiment with KM12 colon and in the experiment on IGROV1 ovarian was greater than 100 µM each time.
Consider `C/C(CC(=O)Nc1cccc(C)c1C)=N\NC(N)=S`, for which the TGI in the experiment on SNB-19 CNS, in the experiment with OVCAR-8 ovarian, with UO-31 renal, in the experiment with SN12C renal, in the experiment on HOP-62 NSCLC and in the experiment on SK-MEL-28 melanoma was greater than 100 µM throughout. Further, the TGI in the experiment on TK-10 renal, in the experiment on HCT-116 colon, in the experiment on KM12 colon and in the experiment on IGROV1 ovarian was greater than 100 µM in each case.
Consider `COc1cc(CC2C(=O)OCC2[C@@H](OC(C)=O)c2ccc3c(c2)OCO3)c(Br)c(OC)c1OC` (stereo not given in full), for which the TGI with SNB-19 CNS, in the experiment on OVCAR-8 ovarian, in the experiment on UO-31 renal, in the experiment on SN12C renal, in the experiment on HOP-62 NSCLC and in the experiment on SK-MEL-28 melanoma was greater than 100 µM throughout. Moreover, the TGI in the experiment with TK-10 renal, in the experiment on HCT-116 colon, in the experiment with KM12 colon and in the experiment with IGROV1 ovarian was greater than 100 µM in each case.

These data come from PubChem BioAssay (NCI).
